Test results as given in article PMC9570088, “Phytochemicals with Chemopreventive Activity Obtained from the Thai Medicinal Plant Mammea siamensis (Miq.) T. Anders.: Isolation and Structure Determination of New Prenylcoumarins with Inhibitory Activity against Aromatase” (International Journal of Molecular Sciences, 2022).
Entries after “also recorded” stand apart in the source; their conditions may differ. Like-named read-outs stand apart in the source and are kept apart here.

Tests used:
[1] = biological target: T1, human recombinant aromatase (Homo sapiens, UniProt P11511); set-up: method as in PMID 27373643; settings: value marked as from earlier report; read-out: IC50 against human recombinant aromatase; cited from earlier work
T1 construct: purchased BD Biosciences (Heidelberg, Germany)
T1 sequence (P11511 1-503): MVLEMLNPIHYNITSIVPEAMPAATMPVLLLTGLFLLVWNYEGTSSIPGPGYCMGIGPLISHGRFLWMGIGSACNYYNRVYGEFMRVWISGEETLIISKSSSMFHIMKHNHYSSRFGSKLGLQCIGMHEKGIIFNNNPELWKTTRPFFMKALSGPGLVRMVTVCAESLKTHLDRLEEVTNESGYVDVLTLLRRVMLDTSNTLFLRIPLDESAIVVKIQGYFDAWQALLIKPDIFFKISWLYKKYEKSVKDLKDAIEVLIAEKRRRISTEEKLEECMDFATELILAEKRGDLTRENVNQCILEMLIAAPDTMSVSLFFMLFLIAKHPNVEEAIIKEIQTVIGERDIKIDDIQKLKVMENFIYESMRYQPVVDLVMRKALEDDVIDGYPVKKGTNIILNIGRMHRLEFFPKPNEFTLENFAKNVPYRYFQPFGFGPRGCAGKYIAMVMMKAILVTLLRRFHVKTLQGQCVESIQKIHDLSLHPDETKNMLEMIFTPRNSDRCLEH

[2] = biological target: T1, human recombinant aromatase; experiment: Inhibitory effects against human recombinant aromatase (DBF fluorescence assay); assay type: biochemical; settings: for IC50: substrate DBF, mean, N = 3
Description: Dibenzylfluorescein (DBF) and human CYP19 + P450 reductase SUPERSOMES (human recombinant aromatase) were purchased from BD Biosciences (Heidelberg, Germany) and testosterone from Tokyo Chemical Industry Co., Ltd. (Tokyo, Japan). The other chemicals used in this study were purchased from Wako Pure Chemical Industries, Co., Ltd. (Osaka, Japan).
The experiments were performed according to a previously described method. Briefly, a test sample was dissolved in dimethyl sulfoxide (DMSO), and the solution was diluted with potassium phosphate buffer (50 mM, pH 7.4) containing MgCl2 (0.5 mM) to obtain the test sample solution (concentration of DMSO: 2%). An enzyme/substrate solution in the buffer (20 µL, 1.6 µM DBF, 8 nM human recombinant aromatase) and the test sample solution (20 µL) were mixed in a 96-well half-area black microplate (Greiner Bio-One, Frickenhausen, Germany) at 37 °C for 10 min. The enzymatic reaction was initiated by adding NADPH solution (40 µL, 500 µM) at 37 °C for 30 min. After 30 min of incubation, NaOH (30 µL, 2 mM) was added, and the reaction mixture was incubated at 37 °C for 2 h to induce fluorescent signals (final DMSO concentration, 0.5%; aromatase, 2 nM; and NADPH, 250 µM). Fluorescence was measured using a fluorescence microplate reader (SH-9000, CORONA […] Co., Ltd., Ibaraki, Japan) at an excitation wavelength of 435 nm and emission wavelength of 535 nm. Experiments were performed in triplicate, and the IC50 values were determined graphically.

[3] = biological target: T1, human recombinant aromatase; experiment: Kinetic analysis of inhibitory activity against human recombinant aromatase using Lineweaver-Burk plots (testosterone substrate, estradiol EIA); assay type: biochemical; settings: for mode of inhibition of aromatase: Lineweaver–Burk plots; for Ki: testosterone 0.4–4 µM as substrate, secondary plot of Lineweaver–Burk, N = 3
Description: In the assay system, we fixed the enzyme concentration, changed the substrate concentration, and obtained the kinetic parameters of the enzyme-catalyzed reaction using Lineweaver–Burk double reciprocal plot 1/[V] vs. 1/[S]. The inhibition constant Ki indicates the potency of an inhibitor and equals the concentration required to produce half-maximal inhibition. The Ki value was obtained from the intersection of the secondary plot with the x-axis (apparent Km/Vmax vs. inhibitor).
Experiments were performed using a previously described protocol, modified by using various concentrations of testosterone (0.4–4 µM) as substrates instead of DBF and the plate was heated at 37 °C for 15 min. After the reaction, the enzyme was inactivated by heating in a boiling water bath for 2 min. An estradiol EIA kit (Oxford Biomedical Research, Inc., Oxford, MI, USA) was used to develop an estradiol standard curve to determine the concentration of estradiol produced and to correlate the concentration of estradiol with the reaction velocity. The mode of inhibition was analyzed using the Lineweaver–Burk plot of the inverse of the reaction velocity of estradiol plotted on the vertical axis and the inverse of the final concentration of the substrate on the horizontal axis, with and without the test substance (Figure S27).

IC50 [2] [µM] | Ki [3] [µM] | SMILES | IC50 [1] [µM] | other results
– | – | CCC(C)C(=O)c1c(O)c(CC=C(C)C)c2oc(=O)cc([C@@H](O)CC)c2c1O (stereo partly drawn) [compound 21, Kayaessamin F] | 19.7 | –
7.6 | 3.4 | CCCC(=O)c1c(O)c2c(c3c(CCC)cc(=O)oc13)OC(C)(C)C=C2 [compound 1, mammeasin K] | – | mode of inhibition of aromatase [3]: competitively inhibit; also recorded: competitive inhibition; also recorded: competitive inhibitors
10 | – | CCCC(=O)c1c(O)c(C/C=C(\C)CCC=C(C)C)c(O)c2c([C@@H](O)CC)cc(=O)oc12 [compound 19, Kayeassamin A] | – | –
– | – | CCCC(=O)c1c2c(c3oc(=O)cc(CCC)c3c1O)C=CC(C)(C)O2 [compound 32, Mammea B/AC cyclo D] | 24.6 | –
19.3 | – | CC[C@H](O)c1cc(=O)oc2c3c(c(C(=O)CC(C)C)c(O)c12)OC(C)(C)C=C3 [compound 41, Deacetylammea E/AA cyclo D] | – | –
– | – | CCCC(=O)c1c(O)c(CC=C(C)C)c2oc(=O)cc([C@@H](O)CC)c2c1O [compound 20, Kayaessamin E] | 14.9 | –
– | 1.2 | CC(C)CC(=O)c1c2c(c3oc(=O)cc(-c4ccccc4)c3c1O)C=CC(C)(C)O2 [compound 28, Mammea A/AA cyclo D] | 7.2 | mode of inhibition of aromatase [3]: competitive inhibition; also recorded: competitive inhibitors
– | – | CC[C@H](O)c1cc(=O)oc2c(CC=C(C)C)c(O)c(C(=O)CC(C)C)c(O)c12 [compound 22, Kayaessamin G] | 27.8 | –
– | – | CC[C@H](OC(C)=O)c1cc(=O)oc2c(C(=O)CC(C)C)c(O)c(CC=C(C)C)c(O)c12 [compound 36, Mammea E/BA] | 16.6 | –
21.3 | – | CCCC(=O)c1c(O)c2c(c3c(CCC)cc(=O)oc13)OC(C)(CCC=C(C)C)C=C2 (stereo not drawn) [compound 12, Mammeasin G] | – | –
21.1 | – | CCC(OC(C)=O)c1cc(=O)oc2c(C(=O)C(C)C)c(O)c3c(c12)OC(C)(C)C=C3 (stereo not drawn) [compound 34, Mammea E/BD cyclo D] | – | –
– | 0.84 | CCCc1cc(=O)oc2c3c(c(C(=O)C(C)CC)c(O)c12)OC(C)(C)C=C3 (stereo not drawn) [compound 31, Mammea B/AB cyclo D] | 3.1 | mode of inhibition of aromatase [3]: competitive inhibitory activity; also recorded: competitive inhibition; also recorded: competitive inhibitors
12 | 2.6 | C=C(C)c1cc2c(o1)c(C(=O)CCC)c(O)c1c(-c3ccccc3)cc(=O)oc12 [compound 4, mammeasin N] | – | mode of inhibition of aromatase [3]: competitive inhibition; also recorded: competitive inhibitors
> 100 | – | CCCC(=O)c1c2c(c3oc(=O)cc(-c4ccccc4)c3c1O)C(OC)C(C(C)(C)O)O2 (stereo not drawn) [compound 3, mammeasin M] | – | inhibition at 100 µM ([2]; 100 µM, value in parentheses): 43.4%
23.4 | – | CCCc1cc(=O)oc2c3c(c(C(=O)C(C)CC)c(O)c12)OC(C)(CCC=C(C)C)C=C3 (stereo not drawn) [compound 15, Mammeasin J] | – | –
9.3 | 14.7 | CCCC(=O)c1c(O)c2c(c3c([C@@H](O)CC)cc(=O)oc13)OC(C)(CCC=C(C)C)C=C2 (stereo partly drawn) [compound 23, Kayaessamin I] | – | –
9.2 | 4.3 | CC(C)CC(=O)c1c2c(c3oc(=O)cc(-c4ccccc4)c3c1O)CC(C(C)(C)O)O2 (stereo not drawn) [compound 39, Mammea A/AA cyclo F] | – | –
– | – | CCCC(=O)c1c2c(c3oc(=O)cc(-c4ccccc4)c3c1O)C=CC(C)(C)O2 [compound 30, Mammea A/AC cyclo D] | 35 | –
– | – | CCCC(=O)c1c(O)c2c(c3c([C@@H](O)CC)cc(=O)oc13)OC(C)(C)C=C2 [compound 35, Deacetylammea E/BC cyclo D] | 16.6 | –

IC50 [2] [µM] | Ki [3] [µM] | SMILES | IC50 [1] [µM] | other results
– | 1.3 | CC[C@H](OC(C)=O)c1cc(=O)oc2c(C(=O)CC(C)C)c(O)c(C/C=C(\C)CCC=C(C)C)c(O)c12 [compound 7, Mammeasin B] | 4.1 | mode of inhibition of aromatase [3]: competitive inhibition; also recorded: competitive inhibitors
– | – | CC[C@H](O)c1cc(=O)oc2c(C(=O)CC(C)C)c(O)c(C/C=C(\C)CCC=C(C)C)c(O)c12 [compound 18, Surangin D] | 9.8 | –
– | 2.8 | CC(C)=CCC/C(C)=C/Cc1c(O)c(C(=O)C(C)C)c2oc(=O)cc3c2c1OC(C)C3 (stereo not drawn) [compound 8, Mammeasin C] | 2.7 | mode of inhibition of aromatase [3]: competitive inhibition; also recorded: competitive inhibitors
21.3 | – | C/C=C/c1cc(=O)oc2c(C(=O)CCC)c(O)c3c(c12)OC(C)(CCC=C(C)C)C=C3 (stereo not drawn) [compound 14, Mammeasin I] | – | –
20.7 | – | CCCC(=O)c1c(O)c2c(c3c(-c4ccccc4)cc(=O)oc13)OC(C)(C)C=C2 [compound 2, mammeasin L] | – | –
– | – | CCC(C)C(=O)c1c2c(c3oc(=O)cc(-c4ccccc4)c3c1O)C=CC(C)(C)O2 (stereo not drawn) [compound 29, Mammea A/AB cyclo D] | 24.1 | –
– | 2.6 | CCC(C)C(=O)c1c(O)c(C/C=C(\C)CCC=C(C)C)c(O)c2c([C@@H](O)CC)cc(=O)oc12 (stereo partly drawn) [compound 17, Surangin C] | 8.8 | mode of inhibition of aromatase [3]: competitive inhibition; also recorded: competitive inhibitors
– | 8.1 | CCC(C)C(=O)c1c(O)c(CC=C(C)C)c2oc(=O)cc(-c3ccccc3)c2c1O (stereo not drawn) [compound 25, Mammea A/AB] | 8.6 | –
– | 4.3 | CCCC(=O)c1c(O)c(C/C=C(\C)CCC=C(C)C)c2c3c(cc(=O)oc13)CC(C)O2 (stereo not drawn) [compound 9, Mammeasin D] | 3.6 | –
– | 1.3 | CCC(C)C(=O)c1c(O)c(C/C=C(\C)CCC=C(C)C)c(O)c2c([C@H](CC)OC(C)=O)cc(=O)oc12 (stereo partly drawn) [compound 16, Surangin B] | 9.8 | mode of inhibition of aromatase [3]: competitive inhibition; also recorded: competitive inhibitors
– | – | CCC(C)C(=O)c1c(O)c(CC=C(C)C)c(O)c2c(C(CC)OC(C)=O)cc(=O)oc12 (stereo not drawn) [compound 37, Mammea E/BB] | 18.6 | –
12.1 | – | CCC(C)C(=O)c1c(O)c2c(c3c([C@@H](O)CC)cc(=O)oc13)OC(C)(C)C=C2 (stereo partly drawn) [compound 42, Deacetylammea E/BB cyclo D] | – | –
– | 2.3 | CCCC(=O)c1c(O)c2c(c3c(C(CC)OC(C)=O)cc(=O)oc13)OC(C)(C)C=C2 (stereo not drawn) [compound 33, Mammea E/BC cyclo D] | 11.5 | mode of inhibition of aromatase [3]: competitive inhibition; also recorded: competitive inhibitors
– | 5.1 | CCCC(=O)c1c(O)c(C/C=C(\C)CCC=C(C)C)c(O)c2c([C@H](CC)OC(C)=O)cc(=O)oc12 [compound 6, Mammeasin A] | 8.7 | –
19.9 | – | CCCC(=O)c1c2c(c3oc(=O)cc(-c4ccccc4)c3c1O)CC(C(C)(C)O)O2 (stereo not drawn) [compound 40, Mammea A/AC cyclo F] | – | –
17.9 | – | CCCc1cc(=O)oc2c(C(=O)C(C)CC)c(O)c3c(c12)OC(C)(CCC=C(C)C)C=C3 (stereo not drawn) [compound 13, Mammeasin H] | – | –
– | – | CC(C)=CCc1c(O)c(C(=O)C(C)C)c(O)c2c(-c3ccccc3)cc(=O)oc12 [compound 27, Mammea A/AD] | 11.3 | –
– | – | CCCC(=O)c1c(O)c(CC=C(C)C)c2oc(=O)cc(-c3ccccc3)c2c1O [compound 26, Mammea A/AC] | 13.7 | –

SMILES | IC50 [2] [µM] | Ki [3] [µM] | IC50 [1] [µM] | other results
CC(C)=CCc1c(O)c(C(=O)CC(C)C)c(O)c2c(-c3ccccc3)cc(=O)oc12 [compound 24, Mammea A/AA] | – | 13.7 | 6.9 | –
